“And” between values parts separate entries of the source, which are not always exact repeats. Equal entries are not always repeated. Where two headings read alike, the source gives them in different places. Where only a bound is given, the exact number is not on record here.

The conditions of data set [1]: for MPR AUC0‐t (metabolite‐to‐parent ratio) / MPR AUCinf (metabolite‐to‐parent ratio) / MPR Cmax (metabolite‐to‐parent, 5‐HVLX‐gluc to viloxazine, ratio): adjusted for molecular weights; for AUC0‐t, geometric mean / AUCinf, geometric mean / Cmax, geometric mean: geometric least‐squares mean of log‐transformed values.
The nature of data set [2]: Steady-state plasma pharmacokinetics of paroxetine, healthy adults. Format: in vivo, human.
Data set [3] can be described thus: Safety monitoring: treatment-related adverse events in healthy adults. It is filed as in vivo, human. To be noted: n = 22 per treatment period.
The test system of data set [4] is CYP2D6. To be noted: cited from earlier work.
The subject of a further data set is CYP2C9. To be noted: read-out: CYP2C9 IC50; cited from earlier work.
Data set [5] deals with CYP2D6. To be noted: read-out: CYP2D6 IC50; cited from earlier work.
The test system of a further data set is CYP2B6. Particulars: read-out: CYP2B6 IC50; cited from earlier work.
In another data set the test system is CYP2C8. To be noted: read-out: CYP2C8 IC50; cited from earlier work.
Another data set concerns CYP2C19. To be noted: read-out: CYP2C19 IC50; cited from earlier work.
Another data set deals with CYP1A2. To be noted: cited from earlier work.
The test system of another data set is CYP3A4/5. To be noted: read-out: CYP3A4/5 IC50; two values given; cited from earlier work.
Another data set is described as follows: clinical. To be noted: human, plasma, oral.
The mark [6] stands for this setting: Combination (period 3), mean ± SD.
[7] abbreviates: SPN‐812 alone (period 1), 700 mg single dose, plasma, mean ± SD.
Setting [8] is: SPN‐812 alone (period 1), mean ± SD.
[9] abbreviates: combination versus SPN‐812 alone.
Setting [10] is: geometric LS mean ratio, period 3/period 1.
The mark [11] stands for this setting: paroxetine 20 mg QD coadministration.
[12] abbreviates: day 13, paroxetine 20 mg once daily, mean ± SD.

With `CCOc1ccc(O[C@@H]2O[C@H](C(=O)O)[C@@H](O)[C@H](O)[C@H]2O)cc1OCC1CNCCO1` (stereo partly drawn) [5‐HVLX‐gluc, 5‐hydroxyviloxazine glucuronide], in data set [1] (setting [6]), the “MPR AUC0‐t (metabolite‐to‐parent ratio)” value is 0.31 ± 0.08 (25.2%); the “MPR AUCinf (metabolite‐to‐parent ratio)” value is 0.31 ± 0.08 (25.1%); the “MPR Cmax (metabolite‐to‐parent, 5‐HVLX‐gluc to viloxazine, ratio)” value is reported as 0.33 ± 0.06 (19.2%). For the same compound, in data set [1] (Combination (period 3)), the “AUC0‐t, geometric mean” value amounted to 60.1; the “AUCinf, geometric mean” value is reported as 60.3; the “Cmax, geometric mean” value is listed as 2.8. For the same compound, in [1] (setting [7]), the “AUC0‐t” value is 70.5 ± 19.6 (27.8%) μg·h/mL, the AUCinf is 70.7 ± 19.7 (27.9%) μg·h/mL, the Cmax is 3.5 ± 0.8 (24.2%) μg/mL and the t1/2 was 5.7 ± 1.7 (29.6%) h. For the same compound, in data set [1] (setting [8]), the “MPR AUC0‐t (metabolite‐to‐parent ratio)” value was 0.49 ± 0.15 (31.1%); the “MPR AUCinf (metabolite‐to‐parent ratio)” value is 0.48 ± 0.15 (31.5%); the “MPR Cmax (metabolite‐to‐parent, 5‐HVLX‐gluc to viloxazine, ratio)” value is on record as 0.47 ± 0.12 (27.4%). In data set [1] (SPN‐812 alone (period 1)), the “AUC0‐t, geometric mean” value is recorded as 67.8; the “AUCinf, geometric mean” value is recorded as 67.9; the “Cmax, geometric mean” value is 3.4. Further, in data set [1] (setting [9]), the “delay of median Tmax after the combination compared with SPN‐812 alone” value is reported as “≈ 3 hour”. In data set [1] (setting [10]), the “AUC0‐t ratio, combination/SPN‐812 alone (relative bioavailability)” value is 88.75% and 88.8%; the “AUCinf ratio, combination/SPN‐812 alone (relative bioavailability)” value was 88.77% and 88.8%; the “Cmax ratio, combination/SPN‐812 alone (relative bioavailability)” value was 83.05% and 83.1%. Besides, in data set [1] (setting [11]), the “decrease in AUC0‐t after the combination versus SPN‐812 alone” value came out at 12%, the “decrease in AUCinf after the combination versus SPN‐812 alone” value is 12% and the “decrease in Cmax after the combination versus SPN‐812 alone” value stood at 17%.

The term AUC denotes the area under the concentration-time curve, a measure of exposure. The term Tmax denotes the time at which the peak concentration occurs. Regarding `Fc1ccc([C@@H]2CCNC[C@H]2COc2ccc3c(c2)OCO3)cc1` [Paroxetine, paroxetine], in [2] (setting [12]), the Cavg was 29.6 ± 15.7 ng/mL and the “Cmin,ss” value came out at 22.3 ± 13.4 ng/mL. Moreover, in data set [2] (human, plasma, oral, 20 mg), the AUC was 709 ± 377 ng·h/mL, the Cmax is 39 ± 19 ng/mL and the Tmax turned out to be 6 h. For the same compound, in [3], the “Abnormal dreams (treatment‐related)” value is given as 0 n (%), the “Any adverse event (treatment‐related)” value was 3 (13.6%) n (%), the “Decreased appetite (treatment‐related)” value was 0 n (%) and the “Diarrhea (treatment‐related)” value is 3 (13.6%) n (%). In data set [3], the “Dysgeusia (treatment‐related)” value is 0 n (%), the “Palpitations (treatment‐related)” value is 0 n (%) and the “Somnolence (treatment‐related)” value is listed as 0 n (%).

Usually half-life stands for how long it takes for the measured level to halve. A higher half-life goes with slow decline. On to `CCOc1ccccc1OCC1CNCCO1` (stereo not drawn) [Viloxazine, viloxazine], for which the “share of CYP2D6 in the formation of 5‐hydroxyviloxazine” value in the data set with CYP2D6 [4] is given as below 50%. Also, the IC50 in the data set with CYP2C9 was above 1010 µM; with CYP2D6 [5], 141 µM; in the data set on CYP2B6, 184 µM; in the data set on CYP2C8, above 1010 µM; in the data set with CYP2C19, above 1010 µM; in the data set on CYP1A2 (read-out: CYP1A2 reversible inhibition IC50, reversible inhibition), 0.269 µM. In addition, the IC50 with CYP1A2 (read-out: CYP1A2 time‐dependent inhibition IC50, after 30 minute preincubation with nicotinamide adenine dinucleotide phosphate) was 0.0436 µM; in the data set on CYP3A4/5 it was 221 µM and 352 µM. Also, in data set [1] (setting [9]), the “change (increase) in AUC / exposure with CYP2D6 inhibition by paroxetine” value is on record as below 35%. For the same compound, in [1] (setting [9]), the “delay of median Tmax after the combination compared with SPN‐812 alone” value is “≈ 1 hour”. Further, the “increase in AUC0‐t after the combination versus SPN‐812 alone” value in data set [1] (setting [11]) was “under 35%”. In addition, in data set [1] (setting [11]), the “increase in AUCinf after the combination versus SPN‐812 alone” value is listed as “under 35%”. In addition, the “increase in Cmax after the combination versus SPN‐812 alone” value in data set [1] (setting [11]) was 16%. Moreover, the half-life in the data set “clinical” (700 mg) was 5.2 ± 2.3 h. Moreover, the AUC in “clinical” (AUC0‐t, Combination (period 3): SPN‐812 700 mg + paroxetine 20 mg QD, mean ± SD) was 112000 ± 23900 ng·h/mL.

The values above are taken from article PMC8597116 (Clinical Pharmacology in Drug Development, 2021).
